The results in this text go back to patent publication US20240083910A1, “AMIDO-SUBSTITUTED PYRIDYL COMPOUNDS AND METHODS OF USE THEREOF FOR THE TREATMENT OF HERPESVIRUSES” (Merck Sharp & Dohme LLC, priority 2020, published 2024).

Structures are written as SMILES. pEC50, pIC50: −log10 of the molar value. Read-outs that look alike come from different tables or passages of the source.

For one experiment, the system named is HCMV Strain AD169. In words: Viral qPCR assay, HCMV. The class given is cell-based, Human cytomegalovirus. The following applies: MRC-5 cells, 0.05-0.1 pfu/cell, growth media or 50% fetal bovine serum, viral genome copies by qPCR, read-out: CMV Cell (EC50). As for the experimental part: (§1) MRC5 cells, Vero cells, and MeWo cells were obtained from ATCC, and were maintained at 37° C./5% CO2/90% relative humidity in Minimal Essential Medium with 10% fetal bovine serum, […] L-glutamine, 100 units/ml penicillin and 100 ug/ml streptomycin. Assay plates were prepared by dispensing compounds dissolved in DMSO into wells of 384 well collagen-coated plates using an ECHO acoustic dispenser. Each compound was tested in a 10-point, serial 3-fold dilution. Controls included uninfected cells and infected cells treated only with DMSO. Assays were initiated by mixing selected cells, in suspension, with virus, and dispensing 50 μl/well infected cells to pre-plated compounds. Plates were incubated at 37° C./5% CO2/90% relative humidity for ˜72 hrs to permit genomic replication, and infected cells were lysed by the addition of an equal volume of lysis buffer (10 mM Tris-HCl, pH8, 50 mM KCl, 2 mM MgCl2, 0.45% NP-40, 0.45% Tween-20, and 100 μg/ml proteinase K). An aliquot of the lysate was transferred to a 384-well PCR plate and incubated at 56° C. for 1 hour and then at 95° C. for 10 min. Levels of a viral gene and of the cellular control, PPIA (Thermo Fisher Assay ID=Hs04194521_s1), were measured in separate 10 ul qPCR assays using TaqMan® Gene Expression Master Mix (Applied Biosystems), and an 7900HT Fast Real-Time PCR System with 384-Well Block Module. 7-point, serial 10-fold dilutions of a plasmid standard were run on each plate to generate a standard curve, and genome copies numbers were calculated by plotting experimental Ct onto linear regression of the standard curve. Viral genome copy numbers were normalized by cellular control copy number, and compound effects were normalized to the window defined by the controls. Calculated % effects were fit using a 4-parameter algorithm, and EC50 was reported.
(§2) MRC5 cells, Vero cells, and MeWo cells were obtained from ATCC, and were maintained at 37° C./5% CO2/90% relative humidity in Minimal Essential Medium with 10% fetal bovine serum, […] L-glutamine, 100 units/ml penicillin and 100 ug/ml streptomycin. Assay plates were prepared by dispensing compounds dissolved in DMSO into wells of 384 well collagen-coated plates using an ECHO acoustic dispenser. Each compound was tested in a 10-point, serial 3-fold dilution. Controls included uninfected cells and infected cells treated only with DMSO. Assays were initiated by mixing selected cells, in suspension, with virus, and dispensing 50 μl/well infected cells to pre-plated compounds. Plates were incubated at 37° C./5% CO2/90% relative humidity for ˜72 hrs to permit genomic replication, and infected cells were lysed by the addition of an equal volume of lysis buffer (10 mM Tris-HCl, pH 8, 50 mM KCl, 2 mM MgC12, 0.45% NP-40, 0.45% Tween-20, and 100 μg/ml proteinase K). An aliquot of the lysate was transferred to a 384-well PCR plate and incubated at 56° C. for 1 hour and then at 95° C. for 10 min. Levels of a viral gene were measured in 10 ul qPCR assays using TaqMan® Gene Expression Master Mix (Applied Biosystems), and an 7900HT Fast Real-Time PCR System with 384-Well Block Module. 7-point, serial 10-fold dilutions of a plasmid standard were run on each plate to generate a standard curve, and genome copies numbers were calculated by plotting experimental Ct onto linear regression of the standard curve. Compound effects on viral genome copy number were normalized to the window defined by the controls. Calculated % effects were fit using a 4-parameter algorithm, and ECso was reported.
HCMV: Strain AD169 Street was assayed in MRC-5 cells and was used at 0.05-0.1 pfu/cell. The assays were performed in either growth media or in the same media with 50% fetal bovine serum. Primer-probe set was Thermo Fisher Assay ID=AIFATFK.

The test system of the next experiment is VZV. Briefly: Viral qPCR assay, VZV. The class given is cell-based, varicella zoster virus. The conditions noted are these: MeWo or MRC5 cells, 0.04-0.1 pfu/cell, growth medium, viral genome copies by qPCR. As for the experimental part:
as §1, §2
VZV: Strain Street was maintained as an infected cell stock in MRC-5 cells. It was assayed in MeWo or MRC5 cells and was used at 0.04-0.1 pfu/cell. The assays were performed in growth medium. Primer-probe set was Thermo Fisher Assay ID=AIPAEXQ.

The target of experiment [1] is T1, Human cytomegalovirus DNA polymerase (Human cytomegalovirus, UniProt P08546).
T1 construct: made in house; host or cells: SF21 insect cells (baculovirus vector)
T1 sequence (P08546 whole entry): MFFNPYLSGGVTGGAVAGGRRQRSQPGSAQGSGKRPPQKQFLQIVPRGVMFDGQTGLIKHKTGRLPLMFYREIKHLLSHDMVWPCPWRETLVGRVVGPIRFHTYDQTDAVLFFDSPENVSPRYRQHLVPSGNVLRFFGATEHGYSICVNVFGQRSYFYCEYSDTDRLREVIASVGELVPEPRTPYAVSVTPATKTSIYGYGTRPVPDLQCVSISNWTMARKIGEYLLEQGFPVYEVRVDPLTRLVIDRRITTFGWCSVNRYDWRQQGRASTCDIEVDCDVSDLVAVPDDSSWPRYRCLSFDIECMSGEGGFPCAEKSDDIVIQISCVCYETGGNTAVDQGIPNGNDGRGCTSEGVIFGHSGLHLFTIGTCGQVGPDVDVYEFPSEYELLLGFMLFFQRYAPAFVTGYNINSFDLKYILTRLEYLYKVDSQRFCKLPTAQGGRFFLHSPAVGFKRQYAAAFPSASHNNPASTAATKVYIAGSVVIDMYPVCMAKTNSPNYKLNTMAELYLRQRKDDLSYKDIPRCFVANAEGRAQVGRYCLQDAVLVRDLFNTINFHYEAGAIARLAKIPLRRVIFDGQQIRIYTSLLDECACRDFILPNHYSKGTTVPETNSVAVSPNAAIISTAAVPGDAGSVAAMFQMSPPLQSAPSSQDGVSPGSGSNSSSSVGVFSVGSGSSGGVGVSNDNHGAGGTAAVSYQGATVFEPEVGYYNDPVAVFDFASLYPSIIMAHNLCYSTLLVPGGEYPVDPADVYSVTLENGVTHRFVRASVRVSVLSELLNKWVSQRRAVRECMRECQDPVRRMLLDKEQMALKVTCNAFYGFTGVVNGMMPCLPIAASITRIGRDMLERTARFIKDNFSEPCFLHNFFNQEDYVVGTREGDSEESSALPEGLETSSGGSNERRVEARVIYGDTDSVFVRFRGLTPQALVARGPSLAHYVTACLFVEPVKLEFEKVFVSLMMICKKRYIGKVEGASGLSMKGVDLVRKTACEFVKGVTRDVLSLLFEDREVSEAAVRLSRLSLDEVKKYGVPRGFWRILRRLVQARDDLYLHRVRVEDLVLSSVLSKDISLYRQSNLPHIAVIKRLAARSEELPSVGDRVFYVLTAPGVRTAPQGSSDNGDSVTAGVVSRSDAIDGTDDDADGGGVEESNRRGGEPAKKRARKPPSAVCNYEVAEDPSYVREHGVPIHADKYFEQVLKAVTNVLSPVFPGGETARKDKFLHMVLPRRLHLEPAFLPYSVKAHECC
Briefly: CMV polymerase assay (AlphaLISA). The class given is biochemical. The following applies: HCMV polymerase 0.2 nM, 30 min pre-incubation, 60 min at 37° C. As for the experimental part:
Human cytomegalovirus and varicella zoster virus DNA polymerases were expressed via baculovirus vector in SF21 cells and purified. Heterodimeric nucleic acid substrate used in the herpesvirus polymerase reactions was generated by annealing a 59-mer template to a 17-mer digoxigenin-labeled primer. Polymerase (HCMV final concentration of 0.2 nM; VZV final concentration of 0.4 nM) was combined with an inhibitor compound or DMSO in assay buffer (10 mM HEPES, pH 7.5, 25 mM KCl, 25 mM NaCl, 5 mM MgCl2, 5% glycerol, 0.67 mg/ml bovine serum albumin, and 1 mM tris(2-carboxyethyl)phosphine), and this mixture was pre-incubated for 30 minutes at room temperature in 384-well microtiter plates. The polymerization reaction was initiated by the addition of template/primer substrate (final concentration: 1.6 nM), and dNTPs (final concentration: 24 nM dCTP, 24 nMdGTP, 16 nM dATP, 16 nM dTTP, and 0.8 nM biotin-dUTP). After 60 min incubation at 37° C., reactions were terminated with quench buffer (25 mM HEPES pH 7.5, 100 mM NaCl, 0.25% Tween-20, 12 mM EDTA, and 1 mg/ml bovine serum albumin). Incorporation of biotinylated UTP was detected with 2.5-5 ug/ml anti-DIG AlphaLISA acceptor beads and 5-10 ug/ml streptavidin AlphaLISA donor beads (PerkinElmer). Compound effects were normalized to the window defined by the controls (DMSO only and pre-quenched wells) and were fit using a 4-parameter algorithm to report an IC50.
A general note: Alpha assays give light when donor and acceptor beads are brought close together.

In a further experiment the test system is HSV-1 Strain F. Briefly: Viral qPCR assay, HSV-1. The following applies: Vero or MRC5 cells, 0.0005-0.004 pfu/cell, growth medium, viral genome copies by qPCR, read-out: HSV1 Cell (EC50). The class given is cell-based, Herpes Simplex Virus type 1. As for the experimental part:
as §1, §2
HSV-1: Strain F […] was assayed in Vero or MRC5 cells and was used at 0.0005-0.004 pfu/cell in growth medium. Primer-probe set was Thermo Fisher Assay ID=AIBJZIB
Background: Quantitative PCR measures a nucleic acid by following its amplification.

Setting [2] is: Human betaherpesvirus 5, AD169, MRC5, 72 h.

As usually defined, the pEC50 is the negative decadic logarithm of the EC50, by convention in mol/L. The term pIC50 denotes −log10 of the IC50, conventionally taken in molar units. `COc1nc(C2CC(O)C2)c(O[C@H]2CCN3C(=O)OC[C@@H]3C2)cc1C(=O)NCc1ccc(Cl)cc1` (single isomer, unassigned) [Compound 74]: the pEC50 with HCMV Strain AD169 (setting [2]) was 6.45; in the experiment on VZV (Human alphaherpesvirus 3, 72 h), 6.15; in the experiment on HSV-1 Strain F (Human alphaherpesvirus 1, 72 h), 6.57. Also, the pIC50 in experiment [1] (read-out: CMV (IC50)) is 7.50.
With `COc1nc(C2CC2O)c(O[C@H]2CCN3C(=O)OC[C@@H]3C2)cc1C(=O)NCc1ccc(Cl)cc1` (single isomer, unassigned) [Compound 77], the pEC50 with HCMV Strain AD169 (~72 hrs) is 6.06. In experiment [1] (CMV (IC50)), this compound had a pIC50 of 7.50.
`COc1nc(C2CC2O)c(O[C@H]2CCN3C(=O)OC[C@@H]3C2)cc1C(=O)NCc1ccc(Cl)cc1` (single isomer, unassigned) [Compound 78]: the pEC50 with HCMV Strain AD169 (~72 hrs) is 6.21; in the experiment on VZV (~72 hrs), 5.73; with HSV-1 Strain F (Human alphaherpesvirus 1, 72 h), 6.19. Further, the pIC50 in experiment [1] (read-out: CMV (IC50)) is 7.31.
With `COc1nc(C2CC2O)c(O[C@H]2CCN3C(=O)OC[C@@H]3C2)cc1C(=O)NCc1ccc(Cl)cc1` (single isomer, unassigned) [Compound 79], the pEC50 is 6.47 with HCMV Strain AD169 (~72 hrs), 6.33 in the experiment with VZV (~72 hrs) and 6.29 in the experiment on HSV-1 Strain F (~72 hrs). The negative-log IC50 (pIC50) in experiment [1] (read-out: CMV (IC50)) was 7.54.
In the case of `COc1nc(C2CC2O)c(O[C@H]2CCN3C(=O)OC[C@@H]3C2)cc1C(=O)NCc1ccc(Cl)cc1` (single isomer, unassigned) [Compound 80], the pEC50 in the experiment with HCMV Strain AD169 (~72 hrs) was 5.49. Further, in experiment [1] (read-out: CMV (IC50)), the pIC50 is 7.00.
As to `COc1nc(-c2cnn(C(C)(C)C)c2)c(O[C@H]2CCN3C(=O)OC[C@@H]3C2)cc1C(=O)NCc1ccc(Cl)cc1` [Compound 11], the pEC50 is 6.19 in the experiment with HCMV Strain AD169 (setting [2]); 5.90 in the experiment on VZV (Human alphaherpesvirus 3, 72 h); 6.34 in the experiment on HSV-1 Strain F (Human alphaherpesvirus 1, 72 h). Further, the pIC50 in experiment [1] (read-out: CMV (IC50)) was 7.69.
The matching figures for `COc1nc(-c2cccs2)c(O[C@H]2CCN3C(=O)OC[C@@H]3C2)cc1C(=O)NCc1ccc(Cl)cc1` [Compound 12]: 6.50, 6.63, 6.73 and 8.03.
Taken in the same sequence, the figures for `COc1nc(-c2ccc(C)o2)c(O[C@H]2CCN3C(=O)OC[C@@H]3C2)cc1C(=O)NCc1ccc(Cl)cc1` [Compound 13] were 6.34, 6.51, 6.64 and 7.79.
For `COc1nc(-c2ccc(C)s2)c(O[C@H]2CCN3C(=O)OC[C@@H]3C2)cc1C(=O)NCc1ccc(Cl)cc1` [Compound 14], the pEC50 with HCMV Strain AD169 (setting [2]) was 5.99; with VZV (Human alphaherpesvirus 3, 72 h) it was 5.59; in the experiment with HSV-1 Strain F (Human alphaherpesvirus 1, 72 h), 6.08. Moreover, the negative-log IC50 (pIC50) in experiment [1] (read-out: CMV (IC50)) is 7.72.
The matching figures for `COc1nc(-c2ccoc2)c(O[C@H]2CCN3C(=O)OC[C@@H]3C2)cc1C(=O)NCc1ccc(Cl)cc1` [Compound 17]: 6.50, 6.61, 6.73 and 7.97.
Consider `COc1nc(-c2cc[nH]n2)c(O[C@H]2CCN3C(=O)OC[C@@H]3C2)cc1C(=O)NCc1ccc(Cl)cc1` [Compound 18], for which the pEC50 in the experiment with HCMV Strain AD169 (setting [2]) is 5.92. In addition, in experiment [1] (read-out: CMV (IC50)), the negative-log IC50 (pIC50) is 7.71.
On to `COc1nc(-c2cc3ccccc3o2)c(O[C@H]2CCN3C(=O)OC[C@@H]3C2)cc1C(=O)NCc1ccc(Cl)cc1` [Compound 20], for which the pEC50 in the experiment on HCMV Strain AD169 (setting [2]) was 6.23; in the experiment on VZV (Human alphaherpesvirus 3, 72 h) it was 5.73; in the experiment on HSV-1 Strain F (Human alphaherpesvirus 1, 72 h), 5.84. Further, the pIC50 in experiment [1] (read-out: CMV (IC50)) was 7.60.
Take `COc1ccc(-c2nc(OC)c(C(=O)NCc3ccc(Cl)cc3)cc2O[C@H]2CCN3C(=O)OC[C@@H]3C2)nc1` [Compound 35]: the pEC50 with HCMV Strain AD169 (setting [2]) was 5.71. Also, the pIC50 in experiment [1] (read-out: CMV (IC50)) is 7.10.
As to `COc1nc(-c2cc(C(F)(F)F)nn2C)c(O[C@H]2CCN3C(=O)OC[C@@H]3C2)cc1C(=O)NCc1ccc(Cl)cc1` [Compound 48], the pEC50 in the experiment with HCMV Strain AD169 (setting [2]) is 5.70. Further, in experiment [1] (read-out: CMV (IC50)), the pIC50 is 6.72.
Take `COc1nc(-c2cccc3cc[nH]c23)c(O[C@H]2CCN3C(=O)OC[C@@H]3C2)cc1C(=O)NCc1ccc(Cl)cc1` [Compound 49]: the pEC50 in the experiment with HCMV Strain AD169 (setting [2]) was 5.56. Moreover, the pIC50 in experiment [1] (read-out: CMV (IC50)) is 6.88.
Taken in the same sequence, the figures for `COc1nc(-c2ccc3cc[nH]c3c2)c(O[C@H]2CCN3C(=O)OC[C@@H]3C2)cc1C(=O)NCc1ccc(Cl)cc1` [Compound 50] were 5.56 and 7.09.
Taken in the same sequence, the figures for `COc1nc(-c2ccnc3[nH]ccc23)c(O[C@H]2CCN3C(=O)OC[C@@H]3C2)cc1C(=O)NCc1ccc(Cl)cc1` [Compound 51] were 5.48 and 6.88.
The matching figures for `COc1nc(-c2ccccn2)c(O[C@H]2CCN3C(=O)OC[C@@H]3C2)cc1C(=O)NCc1ccc(Cl)cc1` [Compound 52]: 5.46 and 6.92.
With `COc1nccc(-c2nc(OC)c(C(=O)NCc3ccc(Cl)cc3)cc2O[C@H]2CCN3C(=O)OC[C@@H]3C2)n1` [Compound 53], the negative logarithm of the EC50 (pEC50) with HCMV Strain AD169 (setting [2]) was 5.40. Further, in experiment [1] (read-out: CMV (IC50)), the pIC50 is 6.79.
Taken in the same sequence, the figures for `COc1nc(-c2cc3cccc(OC)c3[nH]2)c(O[C@H]2CCN3C(=O)OC[C@@H]3C2)cc1C(=O)NCc1ccc(Cl)cc1` [Compound 54] were 5.28 and 7.63.
For `COc1nc(N2CC3(C(C)(C)O)CC2C3)c(O[C@H]2CCN3C(=O)OC[C@@H]3C2)cc1C(=O)NCc1ccc(Cl)cc1` [Compound 69], in the experiment with HCMV Strain AD169 (setting [2]), the negative logarithm of the EC50 (pEC50) is 5.83. In experiment [1] (read-out: CMV (IC50)), the pIC50 was 7.27.
